Measured values: BindingDB's records for patent US20230357269 (Les Laboratoires Servier, 2023)
pIC50: −log10 of the molar value.

Biological target: Leucine-rich repeat serine/threonine-protein kinase 2 (Homo sapiens, UniProt Q5S007)
Assay: LRRK2 Kinase Activity Assay
Description: LRRK2 Kinase reactions were carried out in 384-well white polystyrene plates in a final volume of 6 μl using ADP-Glo Kinase Assay kit (Promega Corp.). Compound and substrates (LRRKtide peptide and ATP) in assay buffer were first dispensed in wells. Kinase reaction was then started by the addition of human recombinant LRRK2 protein. After 1h-incubation at 37 C., the enzymatic reaction was stopped by the addition of 6 μl of ADP-Glo Reagent-1 and an additional 40-minutes incubation at 23 C. (residual ATP depletion). A final 30-minutes incubation after 12 μL reagent-2 addition (ADP to ATP conversion and luciferin/luciferase reaction) was performed before luminescent signal acquisition (EnVision multimode plate reader-PerkinElmer, Inc.). Data from 10 individual concentrations of tested compounds (N=2) were fitted (XLfit -ID Business Solutions Ltd) to deliver IC50s (compound concentration leading to 50% inhibition of reference enzymatic activity).

Sequence of Leucine-rich repeat serine/threonine-protein kinase 2 (Q5S007 whole entry): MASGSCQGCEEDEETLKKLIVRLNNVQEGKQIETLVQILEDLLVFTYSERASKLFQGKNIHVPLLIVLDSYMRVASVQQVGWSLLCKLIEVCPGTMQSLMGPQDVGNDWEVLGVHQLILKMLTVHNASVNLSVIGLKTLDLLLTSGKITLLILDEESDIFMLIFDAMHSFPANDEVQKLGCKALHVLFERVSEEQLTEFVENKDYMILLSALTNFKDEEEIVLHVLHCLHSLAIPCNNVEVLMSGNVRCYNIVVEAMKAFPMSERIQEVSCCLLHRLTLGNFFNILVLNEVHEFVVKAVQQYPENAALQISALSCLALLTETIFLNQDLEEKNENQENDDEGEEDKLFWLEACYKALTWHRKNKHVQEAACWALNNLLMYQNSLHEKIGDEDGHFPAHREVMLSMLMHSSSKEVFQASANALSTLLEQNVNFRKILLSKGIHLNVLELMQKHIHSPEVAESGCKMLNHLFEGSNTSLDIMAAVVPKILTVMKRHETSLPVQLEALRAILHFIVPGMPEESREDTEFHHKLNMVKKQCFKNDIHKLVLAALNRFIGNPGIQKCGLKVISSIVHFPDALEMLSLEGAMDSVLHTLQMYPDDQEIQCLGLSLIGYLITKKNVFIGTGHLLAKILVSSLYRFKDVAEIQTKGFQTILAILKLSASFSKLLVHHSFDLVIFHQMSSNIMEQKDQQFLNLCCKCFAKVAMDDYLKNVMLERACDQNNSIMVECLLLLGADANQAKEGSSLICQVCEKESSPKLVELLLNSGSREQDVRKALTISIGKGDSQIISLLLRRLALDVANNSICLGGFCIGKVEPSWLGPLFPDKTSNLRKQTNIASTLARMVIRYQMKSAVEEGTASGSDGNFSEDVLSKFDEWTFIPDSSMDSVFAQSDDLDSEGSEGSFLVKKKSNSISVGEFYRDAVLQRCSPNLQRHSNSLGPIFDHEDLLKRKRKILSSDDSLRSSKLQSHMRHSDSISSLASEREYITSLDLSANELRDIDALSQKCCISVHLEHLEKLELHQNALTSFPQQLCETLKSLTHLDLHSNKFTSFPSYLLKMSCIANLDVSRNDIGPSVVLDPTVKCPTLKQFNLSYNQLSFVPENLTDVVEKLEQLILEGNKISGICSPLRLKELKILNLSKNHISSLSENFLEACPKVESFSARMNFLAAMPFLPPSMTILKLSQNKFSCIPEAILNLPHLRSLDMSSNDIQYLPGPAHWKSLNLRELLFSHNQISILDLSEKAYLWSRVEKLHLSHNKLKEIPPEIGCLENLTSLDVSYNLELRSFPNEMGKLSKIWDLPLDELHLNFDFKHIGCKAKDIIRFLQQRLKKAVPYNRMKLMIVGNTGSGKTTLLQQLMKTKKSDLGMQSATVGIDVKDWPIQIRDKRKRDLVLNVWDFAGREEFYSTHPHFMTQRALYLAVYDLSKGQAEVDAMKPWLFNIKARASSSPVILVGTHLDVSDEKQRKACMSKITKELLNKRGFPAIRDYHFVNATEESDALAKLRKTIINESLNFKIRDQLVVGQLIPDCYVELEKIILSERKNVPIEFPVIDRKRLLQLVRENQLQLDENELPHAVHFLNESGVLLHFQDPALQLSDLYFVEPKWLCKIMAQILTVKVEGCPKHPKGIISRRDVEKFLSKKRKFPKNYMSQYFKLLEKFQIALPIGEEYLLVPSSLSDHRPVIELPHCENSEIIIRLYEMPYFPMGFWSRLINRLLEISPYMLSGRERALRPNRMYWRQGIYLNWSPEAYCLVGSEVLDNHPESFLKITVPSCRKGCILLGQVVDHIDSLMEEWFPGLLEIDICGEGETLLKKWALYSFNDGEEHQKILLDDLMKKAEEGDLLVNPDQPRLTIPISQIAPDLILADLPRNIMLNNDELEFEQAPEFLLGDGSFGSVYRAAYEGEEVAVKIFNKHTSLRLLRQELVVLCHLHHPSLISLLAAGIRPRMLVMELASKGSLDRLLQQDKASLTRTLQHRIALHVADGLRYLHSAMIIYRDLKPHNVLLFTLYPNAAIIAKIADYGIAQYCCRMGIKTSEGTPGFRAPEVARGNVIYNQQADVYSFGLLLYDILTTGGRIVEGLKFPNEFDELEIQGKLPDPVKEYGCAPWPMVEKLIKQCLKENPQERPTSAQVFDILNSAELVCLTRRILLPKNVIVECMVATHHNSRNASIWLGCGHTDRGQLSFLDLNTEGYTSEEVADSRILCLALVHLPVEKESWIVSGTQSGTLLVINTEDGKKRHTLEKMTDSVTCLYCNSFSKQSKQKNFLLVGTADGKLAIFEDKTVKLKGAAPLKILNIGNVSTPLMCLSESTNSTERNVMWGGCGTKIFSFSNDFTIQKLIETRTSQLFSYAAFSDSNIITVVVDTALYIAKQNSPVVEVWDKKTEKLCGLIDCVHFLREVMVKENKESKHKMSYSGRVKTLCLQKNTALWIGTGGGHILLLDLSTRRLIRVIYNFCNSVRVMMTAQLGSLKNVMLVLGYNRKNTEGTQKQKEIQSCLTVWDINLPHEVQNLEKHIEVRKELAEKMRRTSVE

| pIC50 | SMILES |
| --- | --- |
| > 8.00 | O=C1NCCCOc2ccc3[nH]nc(c3c2)-c2ccc(Br)c(c2)CO1 [US20230357269, Example 30] |
| > 8.00 | O=C1NCCCOc2ccc3[nH]nc(c3c2)-c2cc(Br)cc(c2)CO1 [US20230357269, Example 9] |
